The IC50 is the concentration that inhibits the measured activity by half.

For the assay, the target named is T1, recombinant N-terminal MLH1 (residues 15-340) (Homo sapiens, UniProt P40692).
T1 construct: recombinant N-terminal MLH1 (residues 15-340)
T1 sequence (P40692 15-340): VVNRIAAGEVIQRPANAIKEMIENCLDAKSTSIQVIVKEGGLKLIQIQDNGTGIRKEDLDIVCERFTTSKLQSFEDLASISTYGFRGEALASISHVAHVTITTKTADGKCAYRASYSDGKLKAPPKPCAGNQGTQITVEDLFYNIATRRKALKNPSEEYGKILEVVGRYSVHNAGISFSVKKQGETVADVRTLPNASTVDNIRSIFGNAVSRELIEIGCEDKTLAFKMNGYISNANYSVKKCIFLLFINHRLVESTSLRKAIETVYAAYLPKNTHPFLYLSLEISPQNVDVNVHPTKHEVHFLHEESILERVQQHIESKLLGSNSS
The experiment in a line: Fluorescence Polarisation Assay for MLH1. The class given is binding. The note with it: 100 nM N-terminal MLH1, 5 nM probe compound. The method, boiled down:
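Fluorescence polarisation displacement: 100 nM MLH1 (15-340) preincubated 30 min at room temperature with compound, then 5 nM rhodamine-labelled probe added and read immediately. Buffer 25 mM HEPES pH 7.5, 250 mM NaCl, 10 mM MgCl2, 0.01% Triton X-100, 5 mM DTT; normalised to no-inhibitor and no-enzyme controls.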
(Fluorescence polarisation rises when a labelled molecule tumbles more slowly, as on binding a larger partner.)

For `CN(C)CCOc1cc2c(c(N[C@@H]3CCOC3)c1)CN(C(=O)c1c(O)cc(Cl)cc1OCc1ccccc1)CC2` [Example 21, (R)-(2-(Benzyloxy)-4-chloro-6-hydroxyphenyl)(6-(2-(dimethylamino)ethoxy)-8-((tetrahydrofuran-3-yl)amino)-3,4-dihydroisoquinolin-2(1H)-yl)methanone], the IC50 is below 100 nM.

Turning to `CN(C)CCOc1cc2c(c(N[C@H]3CCOC3)c1)CN(C(=O)c1c(O)cc(Cl)cc1OCc1ccccc1)CC2` [Example 22, (S)-(2-(Benzyloxy)-4-chloro-6-hydroxyphenyl)(6-(2-(dimethylamino)ethoxy)-8-((tetrahydrofuran-3-yl)amino)-3,4-dihydroisoquinolin-2(1H)-yl)methanone], the IC50 is below 100 nM.

For `O=C(c1c(O)cc(C(F)(F)F)cc1OCc1ccccc1)N1Cc2cccc(N[C@H]3CCOC3)c2C1` [Example 23, (S)-(2-(Benzyloxy)-6-hydroxy-4-(trifluoromethyl)phenyl) (4-((tetrahydrofuran-3-yl)amino)isoindolin-2-yl) methanone], the IC50 lay in the range of 100 to 1000 nM.

As to `CN(C)Cc1cc2c(cn1)CN(C(=O)c1c(O)cc(C#N)cc1OCc1ccccc1)C2` [Example 27, 3-(Benzyloxy)-4-(6-((dimethylamino)methyl)-2,3-dihydro-1H-pyrrolo[3,4-c]pyridine-2-carbonyl)-5-hydroxybenzonitrile], the half-maximal inhibitory concentration (IC50) was 1000 to 10000 nM.

Take `CN1CCN(c2cc3c(cn2)CN(C(=O)c2c(O)cc(C#N)cc2OCc2ccccc2)C3)CC1` [Example 27.1, 3-(Benzyloxy)-5-hydroxy-4-(6-(4-methylpiperazin-1-yl)-2,3-dihydro-1H-pyrrolo[3,4-c]pyridine-2-carbonyl)benzonitrile]: the IC50 was 1000 to 10000 nM.

For the molecule `O=C(c1c(O)cc(C(F)F)cc1OCc1ccccc1)N1CCc2ccc(NC3CCOC3)cc21` (centres unmarked) [Example 27.2, (2-(Benzyloxy)-4-(difluoromethyl)-6-hydroxyphenyl)(6-((tetrahydrofuran-3-yl)amino)indolin-1-yl)methanone], the half-inhibitory concentration (IC50) was 100 to 1000 nM.

With `N#Cc1cc(O)c(C(=O)N2CCc3ccc(NC4CCOC4)cc32)c(OCc2ccccc2)c1` (centres unmarked) [Example 27.3, 3-(Benzyloxy)-5-hydroxy-4-(6-((tetrahydrofuran-3-yl)amino)indoline-1-carbonyl)benzonitrile], the IC50 was in the range of 1000 to 10000 nM.

On to `N#Cc1cc(O)c(C(=O)N2CCc3cc(NC4CCOC4)ccc32)c(OCc2ccccc2)c1` (centres unmarked) [Example 27.4, 3-(Benzyloxy)-5-hydroxy-4-(5-((tetrahydrofuran-3-yl)amino)indoline-1-carbonyl)benzonitrile], for which the 50% inhibitory concentration (IC50) fell in the range of 1000 to 10000 nM.

Turning to `O=C(c1c(O)cc(C(F)F)cc1OCc1ccccc1)N1CCc2cc(NC3CCOC3)ccc21` (centres unmarked) [Example 27.5, (2-(Benzyloxy)-4-(difluoromethyl)-6-hydroxyphenyl)(5-((tetrahydrofuran-3-yl)amino)indolin-1-yl)methanone], the IC50 fell in the range of 1000 to 10000 nM.

For `CN1CCC(Oc2ccc3c(c2)CCN(C(=O)c2c(O)cc(C#N)cc2OCc2ccccc2)CC3)CC1` [Example 27.6, 3-(Benzyloxy)-5-hydroxy-4-(7-((1-methylpiperidin-4-yl)oxy)-2,3,4,5-tetrahydro-1H-benzo[d]azepine-3-carbonyl)benzonitrile hydroformate], the concentration for half-maximal inhibition (IC50) lay within 1000 to 10000 nM.

For the molecule `CN1CCC(Oc2ccc3c(c2)CCN(C(=O)c2c(O)cc(C(F)F)cc2OCc2ccccc2)CC3)CC1` [Example 27.7, (2-(Benzyloxy)-4-(difluoromethyl)-6-hydroxyphenyl)(7-((1-methylpiperidin-4-yl)oxy)-1,2,4,5-tetrahydro-3H-benzo[d]azepin-3-yl)methanone], the IC50 is 100 to 1000 nM.

For `N#Cc1cc(O)c(C(=O)N2Cc3cnc(N4CCOCC4)cc3C2)c(OCc2ccccc2)c1` [Example 27.8, 3-(Benzyloxy)-5-hydroxy-4-(6-morpholino-2,3-dihydro-1H-pyrrolo[3,4-c]pyridine-2-carbonyl)benzonitrile], the IC50 was in the range of 1000 to 10000 nM.

As for `O=C(c1c(O)cc(C(F)F)cc1OCc1ccccc1)N1Cc2cnc(N3CCOCC3)cc2C1` [Example 27.9, (2-(Benzyloxy)-4-(difluoromethyl)-6-hydroxyphenyl)(6-morpholino-1,3-dihydro-2H-pyrrolo[3,4-c]pyridin-2-yl)methanone], the IC50 fell in the range of 100 to 1000 nM.

With `N#Cc1cc(O)c(C(=O)N2Cc3cnc(N)cc3C2)c(OCc2ccccc2)c1` [Example 27.10, 4-(6-Amino-2,3-dihydro-1H-pyrrolo[3,4-c]pyridine-2-carbonyl)-3-(benzyloxy)-5-hydroxybenzonitrile hydroformate], the IC50 is 1000 to 10000 nM.

As for `Nc1cc2c(cn1)CN(C(=O)c1c(O)cc(C(F)F)cc1OCc1ccccc1)C2` [Example 27.11, (6-Amino-1,3-dihydro-2H-pyrrolo[3,4-c]pyridin-2-yl)(2-(benzyloxy)-4-(difluoromethyl)-6-hydroxyphenyl)methanone hydroformate], the IC50 was 100 to 1000 nM.

In the case of `CN(C)CCOc1cccc2c1CCN2C(=O)c1c(O)cc(C#N)cc1OCc1ccccc1` [Example 27.12, 3-(Benzyloxy)-4-(4-(2-(dimethylamino)ethoxy)indoline-1-carbonyl)-5-hydroxybenzonitrile], the concentration for half-maximal inhibition (IC50) fell in the range of 1000 to 10000 nM.

For `CN(C)CCOc1cccc2c1CCN2C(=O)c1c(O)cc(C(F)F)cc1OCc1ccccc1` [Example 27.13, (2-(Benzyloxy)-4-(difluoromethyl)-6-hydroxyphenyl)(4-(2-(dimethylamino)ethoxy)indolin-1-yl)methanone], the IC50 is 100 to 1000 nM.

In the case of `N#Cc1cc(O)c(C(=O)N2CCc3cccnc32)c(OCc2ccccc2)c1` [Example 27.14, 3-(Benzyloxy)-4-(2,3-dihydro-1H-pyrrolo[2,3-b]pyridine-1-carbonyl)-5-hydroxybenzonitrile], the IC50 is 1000 to 10000 nM.

As to `O=C(c1c(O)cc(C(F)F)cc1OCc1ccccc1)N1CCc2cccnc21` [Example 27.15, (2-(Benzyloxy)-4-(difluoromethyl)-6-hydroxyphenyl)(2,3-dihydro-1H-pyrrolo[2,3-b]pyridin-1-yl)methanone], the IC50 lay within 1000 to 10000 nM.

Consider `CN(C)CCOc1nc2c(c(NC3CCOC3)n1)CN(C(=O)c1c(O)cc(C#N)cc1OCc1ccccc1)CC2` (centres unmarked) [Example 27.16, 3-(Benzyloxy)-4-(2-(2-(dimethylamino)ethoxy)-4-((tetrahydrofuran-3-yl)amino)-5,6,7,8-tetrahydropyrido[4,3-d]pyrimidine-6-carbonyl)-5-hydroxybenzonitrile], for which the 50% inhibitory concentration (IC50) was 100 to 1000 nM.

On to `CN(C)CCOc1nc2c(c(NC3CCOC3)n1)CN(C(=O)c1c(O)cc(C(F)F)cc1OCc1ccccc1)CC2` (centres unmarked) [Example 27.17, (2-(Benzyloxy)-4-(difluoromethyl)-6-hydroxyphenyl)(2-(2-(dimethylamino)ethoxy)-4-((tetrahydrofuran-3-yl)amino)-7,8-dihydropyrido[4,3-d]pyrimidin-6(5H)-yl)methanone], for which the IC50 is 100 to 1000 nM.

On to `N#Cc1cc(O)c(C(=O)N2CCCc3cc(NC4CCOC4)ccc32)c(OCc2ccccc2)c1` (centres unmarked) [Example 27.18, 3-(Benzyloxy)-5-hydroxy-4-(6-((tetrahydrofuran-3-yl)amino)-1,2,3,4-tetrahydroquinoline-1-carbonyl)benzonitrile], for which the IC50 is 1000 to 10000 nM.

Take `O=C(c1c(O)cc(C(F)F)cc1OCc1ccccc1)N1CCCc2cc(NC3CCOC3)ccc21` (centres unmarked) [Example 27.19, (2-(Benzyloxy)-4-(difluoromethyl)-6-hydroxyphenyl)(6-((tetrahydrofuran-3-yl)amino)-3,4-dihydroquinolin-1(2H)-yl)methanone]: the IC50 lay in the range of 1000 to 10000 nM.

`O=C(c1c(O)cc(C(F)F)cc1OCc1ccccc1)N1CCc2ncnc(NC3CCOC3)c2C1` (centres unmarked) [Example 27.20, (2-(Benzyloxy)-4-(difluoromethyl)-6-hydroxyphenyl)(4-((tetrahydrofuran-3-yl)amino)-7,8-dihydropyrido[4,3-d]pyrimidin-6(5H)-yl)methanone]: the IC50 was in the range of 100 to 1000 nM.

Regarding `O=C(c1c(O)cc(C(F)F)cc1OCc1ccccc1)N1CCc2cnccc21` [Example 27.21, (2-(Benzyloxy)-4-(difluoromethyl)-6-hydroxyphenyl)(2,3-dihydro-1H-pyrrolo[3,2-c]pyridin-1-yl)methanone], the IC50 is 1000 to 10000 nM.

In the case of `O=C(c1c(O)cc(C(F)F)cc1OCc1ccccc1)N1CCc2ncccc21` [Example 27.22, (2-(Benzyloxy)-4-(difluoromethyl)-6-hydroxyphenyl)(2,3-dihydro-1H-pyrrolo[3,2-b]pyridin-1-yl)methanone], the IC50 fell in the range of 1000 to 10000 nM.

On to `O=C(c1c(O)cc(C(F)F)cc1OCc1ccccc1)N1CCc2ccncc21` [Example 27.23, (2-(Benzyloxy)-4-(difluoromethyl)-6-hydroxyphenyl)(2,3-dihydro-1H-pyrrolo[2,3-c]pyridin-1-yl)methanone], for which the IC50 was in the range of 1000 to 10000 nM.

In the case of `O=C(c1c(O)cc(C(F)F)cc1OCc1ccccc1)N1CCc2c(NC3CCOC3)cccc21` (centres unmarked) [Example 27.24, (2-(Benzyloxy)-4-(difluoromethyl)-6-hydroxyphenyl)(4-((tetrahydrofuran-3-yl)amino)indolin-1-yl)methanone], the IC50 lay within 1000 to 10000 nM.

With `Cn1ncc2ccc(COc3cc(C(F)F)cc(O)c3C(=O)N3CCc4cccc(N[C@H]5CCOC5)c4C3)cc21` [Example 28, (S)-(4-(Difluoromethyl)-2-hydroxy-6-((1-methyl-1H-indazol-6-yl)methoxy)phenyl)(8-((tetrahydrofuran-3-yl)amino)-3,4-dihydroisoquinolin-2(1H)-yl)methanone], the IC50 is below 100 nM.

These data come from patent publication US20260217687A1 (NeoPhore Limited, priority 2023, published 2026).
